Experimental data from ChEMBL document CHEMBL5543158, “Design of Evodiamine-Glucose Conjugates with Improved In Vivo Antitumor Activity” (J Med Chem, 2024).
Values after ≈ are worked out from the molar mass of the structure shown.

Assays:
[1] = Solubility of the compound in double distilled water measured upto 30 mins by UV-vis spectrophotometry; type: physicochemical
U-87 MG = experiment: Antiproliferative activity against human U-87 MG cells measured after 72 hrs by CCK-8 cells; type: functional, cell-based, U-87MG ATCC
A549 = experiment: Antiproliferative activity against human A549 cells measured after 72 hrs by CCK-8 cells; type: functional, cell-based; details: A549, 72 h
HCT-116 = experiment: Antiproliferative activity against human HCT116 cells measured after 72 hrs by CCK-8 cells; type: functional, cell-based; details: HCT-116, 72 h

- solubility at 0.5 h [1]: 1990 µg/mL (≈ 3.03 mM)
- IC50 (U-87 MG): 49 nM
- IC50 (A549): 49 nM
- IC50 (HCT-116): 49 nM
Compound: CN1c2ccc(F)cc2C(=O)N2CCc3c([nH]c4ccc(OC(=O)CCC(=O)NCCCO[C@@H]5O[C@H](CO)[C@@H](O)[C@H](O)[C@H]5O)cc34)[C@H]21
